From paper PMC3627370 (Journal of the American Chemical Society, 2013)

Experiments:
[1] = molecular target: T1, nicotinamide phosphoribosyltransferase (NAMPT) (Homo sapiens, UniProt P43490); assay: dissociation constant determination at […] °C, pH […]; type: binding
[2] = molecular target: T1, nicotinamide phosphoribosyltransferase (NAMPT); type: biochemical

T1 sequence (P43490 whole entry): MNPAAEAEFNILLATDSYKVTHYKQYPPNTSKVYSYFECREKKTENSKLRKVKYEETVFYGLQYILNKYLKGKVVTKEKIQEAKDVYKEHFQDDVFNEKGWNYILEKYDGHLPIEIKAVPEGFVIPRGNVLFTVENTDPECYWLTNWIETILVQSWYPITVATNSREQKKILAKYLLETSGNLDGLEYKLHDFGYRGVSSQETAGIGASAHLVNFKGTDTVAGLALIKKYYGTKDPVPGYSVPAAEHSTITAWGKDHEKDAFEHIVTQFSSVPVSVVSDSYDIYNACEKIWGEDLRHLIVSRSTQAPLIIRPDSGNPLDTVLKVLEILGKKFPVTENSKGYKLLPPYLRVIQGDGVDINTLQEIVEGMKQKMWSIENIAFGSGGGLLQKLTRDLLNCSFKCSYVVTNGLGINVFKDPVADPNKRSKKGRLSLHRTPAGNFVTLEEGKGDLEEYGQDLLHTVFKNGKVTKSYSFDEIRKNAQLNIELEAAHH

## NC(=O)c1ccc[n+]([C@@H]2O[C@H](COP(=O)([O-])O)[C@@H](O)[C@H]2O)c1 [NMN, nicotinamide mononucleotide]
[1]
  Kd: 34 ± 2 µM

## O=[N+]([O-])c1ccc(O[C@@H]2O[C@H](COP(=O)(O)O)[C@@H](O)[C@H]2O)cc1 [5P-pNR, 5-phospho-p-nitrophenyl β-D-ribofuranoside]
[2]
  Ki: 2.5 µM
